According to patent US8530404B2, “Compounds and methods for treatment of cancer” (FibroGen, Inc., priority 2005, dated 2013):

What was measured:
H460 tumor cells = test: Subcutaneous H460 lung tumor xenograft, tumor growth delay study in combination with chemotherapeutics (Example 6); assay type: in vivo, mouse; details: Cmpd A 60 mg/kg p.o., paclitaxel 15 mg/kg i.v., carboplatin 120 mg/kg i.p.
Experimental: This study was used to determine the effect of combined treatments where compounds and methods of the invention were combined with conventional anti-tumor therapies. These experiments were performed essentially as described above in Example 3, except that 1×10^7 H460 tumor cells were implanted subcutaneously to the flanks of female Harlan nude animals. The number of animals in each group was 10. Treatments were initiated when tumors reached an average size of approximately 100 mm^3.
The study design was representative of tumor progression studies of the TGD (Tumor Growth Delay) type, using a protocol that required individual animals to be humanely euthanized after reaching a set endpoint of tumor volume greater than or equal to 2 cc.
These two chemotherapeutic agents are of two broad classes of conventional anti-tumor therapeutics: microtubule poisons (paclitaxcel); and DNA-directed agents, including the sub-classification of DNA alkylating agents (carboplatin). In tumor-bearing human patients, conventional anti-tumor therapy commonly use of one or both classes of chemotherapeutic agents.
The study was initiated with administration of conventional anti-tumor treatment or vehicle control, and followed one day after with administration of Compound A or vehicle control. […] (See Table 11 and Table 12 for compound and chemotherapeutic agent dosing schedule.)
Tumor progression was determined for each treatment group and is presented as median Time-to-Endpoint (TTE).

HCT116-GFP colon tumors = test: Orthotopically implanted human HCT116-GFP colon tumor mouse xenograft (Example 4); assay type: in vivo
Experimental: Procedures were carried out as described above for Example 3, except that the tumors of GFP-transfected H-460 cells were replaced with HCT116-GFP colon tumors, and surgical orthotopic implantation was directly into colon tissue.
The HCT116 tumor model used here is a well-characterized representative colon xenograft model. The isolation of the human HCT116 tumor cell line from a human colon carcinoma has been described. (Brattain et al (1981) Cancer Res 41:1751-1756.) To aid in the detection of tumors and metastases, HCT116 cells were transduced with genes directing the expression of fluorescent proteins (e.g., HCT116-GFP). The use of fluorescent HCT116-derived tumors in similar studies has been described previously. (Ross et al (2000) Nat Genet 24:227-235.)
HCT116-GFP tumor fragments harvested from the stock animals were transplanted into animals by surgical orthotopic implantation (SOI) as follows. The animals were anesthetized with isoflurane and the surgical area was sterilized using iodine and alcohol. After proper exposure of the colon following a lower midline abdominal incision, the serosa of the colon was removed and two pieces of 1 mm^3 tumor fragments per mouse were implanted. An 8-0 surgical suture was used to penetrate these small tumor pieces and suture them on the wall of the intestine. The intestine was then returned to the abdominal cavity. The incision in the abdominal wall was closed with a 6-0 surgical suture in one layer. The animals were kept under isoflurane anesthesia during surgery. All procedures of the operation described above were performed under a 7× magnification microscope (Olympus). Animals were kept in a barrier facility under HEPA filtration.
Administration of Compound A or 5-FU (5-Flurouracil) to the animals was initiated three days following tumor transplantation. 5-FU, a chemotherapeutic agent used as a positive control, was administered by intraperitoneal injection (60 mg/kg) at four day intervals for a total of three doses. Compound A was administered at either 20 mg/kg or 60 mg/kg three times per week. Tumor volumes were measured at day 15, day 22, and day 29.

NDRG1 gene expression = NDRG1 gene expression in Kelly neuroblastoma cells (Affymetrix microarray); assay type: cell-based; details: 20 μM, 6 hours, vs 0.5% DMSO control
Experimental: To identify compounds useful in the methods of the present invention, the following studies were performed. The effect of compounds of the present invention on expression of various genes associated with anti-tumor activity (e.g., genes having anti-proliferative activity, genes having pro-apoptotic activity, genes having anti-tumor activity, etc.). In these experiments, the effect of compounds on BNIP3, BNIP3L, NDRG1, CDKN1C, and REDD1/RTP801 gene expression in various types of cultured tumor cells line was examined, including Hep3B cells (human hepatocellular carcinoma), Kelly neuroblastoma cells, and MCF7 cells (human breast cancer)
The effects of various compounds of the present invention on the expression of genes associated with tumor growth and progression were examined in Kelly neuroblastoma cells as follows. Kelly neuroblastoma cells were grown in RPMI media. […]
RNA was isolated from the Kelly neuroblastoma cells using a commercial kit and used for the preparation of cDNA. BNIP3, CDKN1C, and 18S RNA levels were measured using commercial kits (18S, Applied Biosystems cat#4319413E); BNIP3, Applied Biosystems cat#HS00969293 MH). […] Kelly cell NDRG1 and BNIP3L mRNA levels were measured by Affymetrix microarray in a separate study. […]

| Compound | % TGD, Percent Tumor Growth Delay (vs. Group control) (H460 tumor cells) [%] | T-C (Test-control, difference of medians) (H460 tumor cells) [days] | % TGD, Percent Tumor Growth Delay (vs. Group control) (H460 tumor cells; listed as Cmpd. A) [%] | Median TTE (Time-to-Endpoint, tumor volume >= 2 cc) (H460 tumor cells; vehicle group 16.2) [days] | mean tumor volume (calipers, mean +/- SD) (HCT116-GFP colon tumors; Treatment Day 15, 20 mg/kg three times per week) | mean tumor volume (calipers, mean +/- SD) (HCT116-GFP colon tumors; Treatment Day 15, 60 mg/kg three times per week) | mean tumor volume (calipers, mean +/- SD) (HCT116-GFP colon tumors; Treatment Day 22, 20 mg/kg three times per week) | mean tumor volume (calipers, mean +/- SD) (HCT116-GFP colon tumors; Treatment Day 22, 60 mg/kg three times per week) | mean tumor volume (calipers, mean +/- SD) (HCT116-GFP colon tumors; Treatment Day 29, 20 mg/kg three times per week) | mean tumor volume (calipers, mean +/- SD) (HCT116-GFP colon tumors; Treatment Day 29, 60 mg/kg three times per week) | fold-increase in NDRG1 mRNA expression (NDRG1 gene expression) [fold] |
| --- | --- | --- | --- | --- | --- | --- | --- | --- | --- | --- | --- |
| O=C(O)CNC(=O)c1nc(Cl)c2ccccc2c1O [Compound A, [(1-Chloro-4-hydroxy-isoquinoline-3-carbonyl)-amino]-acetic acid] | 9 | 1.5 | 9 | 17.7 | 39 +/− 27 | 24 +/− 23 | 67 +/− 49 | 45 +/− 38 | 197 +/− 158 | 152 +/− 125 | – |
| COc1ccc(Oc2ccc3c(O)c(C(=O)NCC(=O)O)ncc3c2)cc1 [Compound C, {[4-Hydroxy-7-(4-methoxy-phenoxy)-isoquinoline-3-carbonyl]-amino}-acetic acid] | – | – | – | – | – | – | – | – | – | – | 7.3 |
